Measurements: publication PMC9266822, “Thermal Shift Assay for Small GTPase Stability Screening: Evaluation and Suitability” (International Journal of Molecular Sciences, 2022)
“Also recorded” adds a separate entry of the source.

How the values were obtained:
[1] = system: T1, KRAS G12C; assay: Protein-Probe thermal stability assay; format: binding, human; conditions: for concentration of saturated stabilization / ΔTm: 50 nM KRAS G12C; for ΔTm: 5 µM inhibitor, saturated
T1 construct: GG-Hs.KRAS4b (2-188) G12C; His6-MBP (N, cleaved yes); made in house; host or cells: E. coli
Description: All Protein-Probe assays were performed using a sample volume of 8 µL and a two-step assay protocol. […] Assays were performed in a sample buffer containing 10 mM HEPES (pH 7.5), 0.001% Triton X-100 and 20 mM NaCl and the buffer was supplemented with 0–10 mM MgCl2, 0–1 mM CaCl2, or 0–1 mM EDTA, depending on the assay. In all thermal stability assays, samples were preincubated at RT for 10 min (nucleotides) or 30 min (inhibitors) prior to thermal measurements. […] At each temperature, samples were incubated for 3 min before the Protein-Probe solution was added, and the TRL-signals at 620 nm were monitored at RT. […]
(§1) All inhibitor assays were performed with a buffer containing 1 mM MgCl2. […]

[2] = molecular target: T2, KRAS G12C (Homo sapiens, UniProt P01116, G12C); assay: Competitive Protein-Probe thermal stability assay with DARPin K13; format: binding; conditions: 50 nM KRAS G12C, 50 nM K13; 2 µM inhibitor
T2 construct: GG-Hs.KRAS4b (2-188) G12C; His6-MBP (N, cleaved yes); made in house; host or cells: E. coli

[3] = system: T3, KRAS WT; assay: SYPRO Orange thermal ramping assay; format: binding, human; conditions: 10 µM KRAS WT, 20 µM compound
T3 construct: His6-MBP (N, cleaved yes); made in house; host or cells: E. coli
Description: (§2) SYPRO Orange and ANS assays were performed using a one-step protocol, where the samples (8 µL) and SYPRO Orange/ANS solution (12 µL) were combined prior to the first heating step. The samples were incubated for 3 min at each temperature, followed by fluorescence signal measurement. SYPRO Orange was used at 5× (stock 5000×) and ANS at 10 µM final concentration.

[4] = system: T1, KRAS G12C; assay: SYPRO Orange / ANS thermal ramping assay; format: binding, human; conditions: 10 µM KRAS G12C, 20 µM inhibitor, double transitions
Description: as §2

[5] = system: T1, KRAS G12C; assay: Protein-Probe thermal stability assay; format: binding, human; conditions: KRAS G12C 50 nM; 1 µM ARS-1620; 0 mM MgCl2
[6] = system: KRAS G12D; assay: Protein-Probe thermal stability assay; format: binding, human; conditions: Table S1; KRAS G12D 50 nM; MgCl2 1 mM, GDP 10 mM as headed
Description: (§3) All Protein-Probe assays were performed using a sample volume of 8 µL and a two-step assay protocol. Detection was performed at room temperature (RT) by adding 65 µL Protein-Probe solution: 4 µM HIDC (1,1,3,3,3′,3′-hexamethylindodicarbocyanine iodide) and 1–1.5 nM Eu^3+-labeled peptide probe (NH2-[…]). Assays were performed in a sample buffer containing 10 mM HEPES (pH 7.5), 0.001% Triton X-100 and 20 mM NaCl and the buffer was supplemented with 0–10 mM MgCl2, 0–1 mM CaCl2, or 0–1 mM EDTA, depending on the assay. In all thermal stability assays, samples were preincubated at RT for 10 min (nucleotides) or 30 min (inhibitors) prior to thermal measurements. Depending on the studied protein, thermal ramping was performed up to 95 °C, using 5 °C intervals. At each temperature, samples were incubated for 3 min before the Protein-Probe solution was added, and the TRL-signals at 620 nm were monitored at RT.
(§4) In addition, KRAS WT was monitored in a sample buffer supplemented with 0–10 mM MgCl2 or 0–1 mM CaCl2.
(§5) KRAS G13D (50 nM) was monitored in the presence of 0–900 nM GDP, and KRAS WT, G13D, G12D, and Q61R (50 nM) were monitored with 10 and/or 100 µM GDP, GTP, and ATP in buffer supplemented with 1 mM MgCl2. KRAS WT (50 nM) was also monitored with 10 µM GDP in a buffer without MgCl2 or supplemented with 0–1 mM CaCl2 or 1 mM EDTA. HRAS (2 µM), NRAS (2 µM), RhoA (2 µM), and Gαi (50 nM) were monitored with 100 µM GDP, GTP, or ATP in buffers with or without 1 mM MgCl2 and 1 mM EDTA. In addition, melting curves for KRAS WT (50 nM) were measured with GTP analogs GTPγS, GMPPNP, and GMPPCP (0–300 µM), and GMP (0–1000 µM) in the presence of 1 mM MgCl2.
All inhibitor assays were performed with a buffer containing 1 mM MgCl2.
(§6) Assays were performed using three DARPins alone or in combination with small molecular inhibitors. […] The thermal curves were monitored after an additional 30 min incubation at RT.

[7] = system: T4, KRAS G13D; assay: SYPRO Orange thermal ramping assay; format: binding, human; conditions: KRAS G13D 3 µM, 1 mM MgCl2, GDP 1 µM, ATP 1 mM
T4 construct: GG-Hs.KRAS4b (2-188) G13D; His6-MBP (N, cleaved yes); made in house; host or cells: E. coli
Description: as §2
Thermal stability curves for KRAS WT, G12C, G13D, and Q61R (0–30 µM) were monitored both with SYPRO Orange and ANS in an assay buffer with or without 1 mM MgCl2. In addition, HRAS, NRAS, KRAS V14I, RhoA, and Gαi were studied at 10 µM concentration. KRAS G13D (3 µM) was assayed with SYPRO Orange in thermal ramping in combination with 0–1000 µM GDP, 1000 µM GTP, and 1000 µM ATP in a buffer supplemented with 1 mM MgCl2. Additionally, 10 µM HRAS, NRAS, KRAS V14I, Ac-KRAS iMet-KRAS, RhoA, and Gαi were studied without additional nucleotides or with 10 or 100 µM GDP/GTP in an assay buffer supplemented with 1 mM MgCl2 or 1 mM EDTA.

[8] = system: T3, KRAS WT; assay: Protein-Probe thermal stability assay; format: binding, human
Description: as §3, §4
as §5, with “KRAS G13D (50 nM) was monitored in the presence of 0–900 nM GDP, and KRAS WT, G13D, G12D, and Q61R (50 nM) were monitored with 10 and/or 100 µM GDP, GTP, and ATP in buffer supplemented with 1 mM MgCl2.” left out
as §1

[9] = system: Gαi; assay: Protein-Probe thermal stability assay; format: binding; conditions: 100 µM GDP or GTP
Description: as §3, §4, §5

[10] = molecular target: T5, KRAS WT (Homo sapiens, UniProt P01116); assay: QRET nucleotide exchange assay, SOScat induced; format: biochemical; conditions: 15 nM KRAS
T5 construct: GG-Hs.KRAS4b (2-188), GG-Hs.KRAS4b (2-188) G12C; His6-MBP (N, cleaved yes); made in house; host or cells: E. coli

[11] = system: T6, KRAS Q61R; assay: Protein-Probe thermal stability assay; format: binding, human; conditions: KRAS Q61R 50 nM
T6 construct: GG-Hs.KRAS4b (2-188) Q61R; His6-MBP (N, cleaved yes); made in house; host or cells: E. coli
Description: as §3, §4, §5, §6

[12] = system: T4, KRAS G13D; assay: Protein-Probe thermal stability assay; format: binding, human; conditions: KRAS G13D 50 nM
Description: as §3, §4, §5, §6

[13] = system: T7, RhoA; assay: Protein-Probe thermal stability assay; format: binding; conditions: Table S1; RhoA 1 µM; additive concentrations not given (100 µM GDP/GTP)
T7 construct: and RhoA (1-182) were gen-; His6-MBP (N, cleaved yes); made in house; host or cells: E. coli
Description: as §3, §4
as §5, with “HRAS (2 µM), NRAS (2 µM), RhoA (2 µM), and Gαi (50 nM) were monitored with 100 µM GDP, GTP, or ATP in buffers with or without 1 mM MgCl2 and 1 mM EDTA.” left out

[14] = Table S1, EDTA 0.5 mM, MgCl2 1 mM, GDP 10 mM, GTP 10 µM as headed

C=CC(=O)N1CCN(c2ncnc3c(F)c(-c4c(O)cccc4F)c(Cl)cc23)CC1 [ARS-1620]
concentration of saturated stabilization [1]: 5 µM
ΔTm [1]: 18 °C
thermal stabilization ([1]; KRAS G12C 50 nM, 1 µM ARS-1620, 1 mM MgCl2): thermally stabilizes
thermal stability increase in the presence of K13 [2]: no thermal stability increase
effect on thermal stability [3]: Neither compound altered
maximal thermal stabilization [4]: ~13 °C
thermal stabilization [5]: diminished the thermal stability effect; also recorded: required Mg^2+ to stabilize

C=CC(=O)N1CC(N2CCN(C(=O)CNc3cc(C4(C)CC4)c(Cl)cc3O)CC2)C1 [ARS-853]
concentration of saturated stabilization [1]: 5 µM
ΔTm [1]: 16 °C
thermal stability increase in the presence of K13 [2]: no thermal stability increase
effect on thermal stability [3]: Neither compound altered
maximal thermal stabilization [4]: ~13 °C

Nc1nc2c(ncn2[C@@H]2O[C@H](COP(=O)(O)OP(=O)(O)O)[C@@H](O)[C@H]2O)c(=O)[nH]1 [GDP, guanosine-5’-diphosphate]
Thermal Stability (°C) [6]: 67.6 ± 0.4 °C
stabilization [7]: no KRAS G13D stabilization
Tm of nucleotide-preloaded KRAS ([8]; KRAS 50 nM preloaded with the nucleotide, unit not given, in °C (unit assumed)): 60.4 ± 0.2
concentration at which KRAS was stabilized ([8]; KRAS WT 50 nM, 1 mM MgCl2): 10000 nM
ΔTm ([8]; KRAS WT 50 nM, 10 µM GDP in 1 mM MgCl2): 7.6 °C
ΔTm ([8]; KRAS WT 50 nM, 10 µM GDP in the presence of 1 mM EDTA): 11.3 °C
Tm ([8]; KRAS WT 50 nM, 10 µM GDP with 0.1 mM Ca2+, unit not given, in °C (unit assumed)): 61.2 ± 0.9
Tm ([8]; KRAS WT 50 nM, 10 µM GDP with 1 mM Ca2+, unit not given, in °C (unit assumed)): 61.8 ± 0.6
Thermal Stability (°C) ([8]; Table S1, KRAS WT 50 nM, additive as headed: EDTA 0.5 mM, MgCl2 1 mM, GDP 10 mM, GTP 10 µM, GTPγS 10 µM, GMP-PNP 300 µM, GMP-PCP 300 µM, GMP 1 mM): 68.0 ± 0.5 °C
max ΔTm ([9]; with Mg2+): ≤ 1.0 °C
max ΔTm ([9]; without Mg2+): ≤ 3.3 °C
KRAS binding ([10]; Fig. 3A legend, SOScat 10 nM): < 15 nM
EC50 ([10]; nucleotide titration, SOScat 5 nM (Table S2), 10 nM (Fig. 3 legend)): 0.0119 ± 0.0007 µM
stabilization by GDP ([11]; 10 µM GDP): not stabilized; also recorded: no change in Tm
Thermal Stability (°C) [11, 14]: 71.3 ± 0.9 °C
shift of Tm ([12]; 10 µM GDP): over 10 °C
GDP concentration at which stabilization saturates ([12]; GDP titration 0–0.9 mM): approximately 300 µM
Thermal Stability (°C) [12, 14]: 60.5 ± 0.2 °C
Thermal Stability (°C) [13]: 70.1 ± 1.1 °C
